These results are taken from patent US20240150368A1, “ULK INHIBITORS AND METHODS OF USE THEREOF” (Deciphera Pharmaceuticals, LLC, priority 2022, published 2024).

The target in one assay is T1, ULK1 kinase (Homo sapiens, UniProt O75385, E37A/K38A).
T1 construct: (residues 1-283; ID NO: 1); purchased Beryllium
T1 sequence (O75385 1-283 E37A/K38A): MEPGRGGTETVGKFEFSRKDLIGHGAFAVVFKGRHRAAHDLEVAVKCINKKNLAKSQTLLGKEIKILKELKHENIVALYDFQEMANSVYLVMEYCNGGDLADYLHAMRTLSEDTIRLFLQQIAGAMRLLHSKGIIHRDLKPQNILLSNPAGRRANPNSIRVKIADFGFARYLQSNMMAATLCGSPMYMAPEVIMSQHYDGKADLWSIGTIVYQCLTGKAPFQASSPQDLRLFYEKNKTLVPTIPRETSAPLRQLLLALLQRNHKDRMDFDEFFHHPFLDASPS
Description: Biochemical assay for ULK1 (coupled pyruvate kinase/lactate dehydrogenase assay). Particulars: 1 mM ATP, 0.1 nM ULK1; read-out: ULK1 (inhibition of biochemical activity), IC50. As for the experimental part: Biochemical Assay for ULK1 (SEQ. ID NO: 1)
Activity of ULK1 kinase was determined spectroscopically using a coupled pyruvate kinase/lactate dehydrogenase assay that continuously monitors the ATP hydrolysis-dependent oxidation of NADH (e.g., Schindler et al. Science (2000) 289: 1938-1942). Assays were conducted in 384-well plates (100 μL final volume) using 0.1 nM ULK1 (from Beryllium), 0.075 mM peptide substrate (YANWLAASIYLDGKKK), 1.5 units pyruvate kinase, 2.1 units lactate dehydrogenase, 1 mM phosphoenol pyruvate, 0.28 mM NADH and 1 mM ATP in assay buffer (100 mM Tris, pH 7.5, 15 mM MgCl2, 0.5 mM DTT, 0.004% (w/v) BSA, and 0.004% Triton X-100). Inhibition of ULK1 was measured by adding serial diluted test compound (final assay concentration of 1% DMSO). A decrease in absorption at 340 nm was monitored continuously for 6 h at 30° C. on a multi-mode microplate reader (BioTek). The reaction rate was calculated using the 2-3 h time frame. The reaction rate at each concentration of compound was converted to percent inhibition using controls (i.e., reaction with no test compound and reaction with a known inhibitor) and IC50 values were calculated using software routines in Prism (GraphPad software).

For assay [1], the system named is ULK kinase substrate ATG13 (pS318-ATG13) in A549 (KRAS mutant) cells. Description: pATG13 levels of mutant KRas A549 cells after treatment with ULK inhibitors in combination with trametinib (ELISA). It is filed as cell-based, human. As for the experimental part:
Cellular Inhibition of ULK Kinase Substrate ATG13 Protein pATG13 Levels of Mutant KRas A549 Cells after Treatment with ULK Inhibitors in Combination with Trametinib
(§1) A549 (KRAS mutant) human lung cancer cells (6,000 cells/well) were added to a 384-well tissue-culture treated plate in 50 μL of pre-warmed DMEM medium supplemented with 10% characterized fetal bovine serum (Invitrogen, Carlsbad, CA), 100 units/mL penicillin G, and 100 μg/mL streptomycin and allowed to grow overnight at 37° C., 5% CO2, and 95% humidity. The following day, 10 μL of media containing trametinib or DMSO as a control was added to wells. The final concentration of trametinib in wells was 250 nM. A dose response of a test compound (0.6 μL per well) was added. DMSO (0.6 μL) was added to control wells. The plate was briefly shaken to mix wells and then incubated at 37° C. overnight. The next day, the media was aspirated and cells were washed with Dulbecco's Phosphate Buffered Saline (Gibco). Cells were lysed using MPER lysis buffer (Pierce, Rockford, IL) containing Halt Phosphatase and Protease Inhibitors (Pierce, Rockford, IL) and Phosphatase inhibitor cocktail 2 (Sigma, St. Louis, MO) at 4° C. for 10 min with shaking.
(§2) Cellular levels of phospho-Serine 318 ATG13 (pATG13) were measured via an ELISA method. Total ATG13 Antibody (Cell Signaling Cat #13273) was used to coat the wells. The plate was incubated at 4° C. overnight and washed with ELISA wash buffer (Biolegend Cat #421601). The wells were then blocked with assay diluent (Biolegend Cat #421203) for 1 h at rt. Plate wells were washed with ELISA wash buffer. Cell lysate was added to wells and incubated at rt for 2 h. Plate wells were washed with ELISA wash buffer. Biotinylated pS318-ATG13 antibody (Rockland Immunochemicals Cat #600-401-C49) was diluted in assay diluent and added to each well and incubated at rt for 1 h. Plate wells were washed with ELISA wash buffer. Streptavidin linked to horseradish peroxidase (Thermo Fisher Cat #21140) was diluted in assay diluent and added to each well and incubated at rt for 1 h. Plate wells were washed with ELISA wash buffer. High sensitivity TMB substrate (Biolegend Cat #421101) was added to each well and incubated at rt for 20 min. The reaction was stopped with 2N Sulfuric Acid. The plate was analyzed at on a plate reader measuring absorbance at 450 nm and 540 nm (background). Signal was calculated by first subtracting the background absorbance at 540 nm from the absorbance at 450 nm for each well. Next, the background corrected absorbance at 450 nm from blank wells was subtracted from test wells. Data was compared to control wells to determine % ATG13 phosphorylation. GraphPad Prism was used to calculate IC50 values.

For assay [2], the system named is ULK kinase substrate ATG13 (pS318-ATG13) in MiaPaCa-2 cells. Description: pATG13 levels of mutant KRas MiaPaCa-2 cells after treatment with ULK inhibitors in combination with trametinib (ELISA). It is filed as cell-based, human. As for the experimental part:
pATG13 Levels of Mutant KRas MiaPaCa-2 Cells after Treatment with ULK Inhibitors in Combination with Trametinib
as §1, with “MiaPaCa-2” for “A549 (KRAS mutant)”, “pancreatic” for “lung”, “(10000” for “(6,000”, “G,” for “G, and”, “streptomycin, and 2.5% Horse Serum” for “streptomycin”, “minutes” for “min”
as §2, with “2.0N sulfuric acid.” for “2N Sulfuric Acid.”
Background: In an ELISA, binding on a coated surface is turned into a signal by an enzyme label.

The target in the next assay is T2, ULK2 kinase (Homo sapiens, UniProt Q8IYT8).
T2 construct: (residues 1-306 with N-terminal GST and His tag; ID NO: 2); purchased Signal Chem U02-11G
Description: Biochemical assay for ULK2 (coupled pyruvate kinase/lactate dehydrogenase assay). Particulars: 1 mM ATP, 1 nM ULK2; read-out: ULK2 (inhibition of biochemical activity), IC50. As for the experimental part: Biochemical Assay for ULK2 (SEQ. ID NO: 2)
Activity of ULK2 kinase was determined spectroscopically using a coupled pyruvate kinase/lactate dehydrogenase assay that continuously monitors the ATP hydrolysis-dependent oxidation of NADH (e.g., Schindler et al. Science (2000) 289: 1938-1942). Assays were conducted in 384-well plates (100 μL final volume) using 1 nM ULK2 (Signal Chem U02-11G), 200 μM ULKtide, 1.5 units pyruvate kinase, 2.1 units lactate dehydrogenase, 1 mM phosphoenol pyruvate, 0.28 mM NADH and 1 mM ATP in assay buffer (100 mM Tris, pH 7.5, 15 mM MgCl2, 0.5 mM DTT, 0.1% octyl-glucoside, 0.002% (w/v) BSA, and 0.002% Triton X-100). Inhibition of ULK2 was measured by adding serial diluted test compound (final assay concentration of 1% DMSO). A decrease in absorption at 340 nm was monitored continuously for 6 h at 30° C. on a multi-mode microplate reader (BioTek). The reaction rate was calculated using the 2-3 h time frame. The reaction rate at each concentration of compound was converted to percent inhibition using controls (i.e., reaction with no test compound and reaction with a known inhibitor) and IC50 values were calculated by fitting a four-parameter sigmoidal curve to the data using Prism (GraphPad software).

Structures are written as SMILES. Some results are limits rather than exact numbers.

T2 sequence (Q8IYT8 with tags, fused parts or gaps): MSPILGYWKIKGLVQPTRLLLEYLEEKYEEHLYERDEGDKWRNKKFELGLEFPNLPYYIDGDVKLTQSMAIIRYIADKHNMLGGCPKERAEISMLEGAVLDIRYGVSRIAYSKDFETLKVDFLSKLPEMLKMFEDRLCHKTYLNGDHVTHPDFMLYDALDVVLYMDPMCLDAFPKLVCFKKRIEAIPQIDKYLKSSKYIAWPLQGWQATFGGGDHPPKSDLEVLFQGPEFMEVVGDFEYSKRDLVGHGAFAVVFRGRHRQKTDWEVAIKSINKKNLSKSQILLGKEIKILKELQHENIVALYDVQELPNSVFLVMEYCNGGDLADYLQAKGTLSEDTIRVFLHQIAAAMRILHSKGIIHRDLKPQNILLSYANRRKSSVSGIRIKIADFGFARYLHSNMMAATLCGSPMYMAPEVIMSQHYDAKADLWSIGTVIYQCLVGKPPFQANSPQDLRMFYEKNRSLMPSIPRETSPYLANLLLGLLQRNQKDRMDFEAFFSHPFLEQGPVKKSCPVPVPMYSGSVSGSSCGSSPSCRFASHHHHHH

Turning to `CC/C(Nc1cnn(C2CCN(C3CCOC3)CC2)c1)=C1/C(=O)Nc2ccc(C(=O)NCC(C)C)cc21` (stereo not shown) [Example 36], the values for the 50% inhibitory concentration (IC50) (at ULK1 kinase; in assay [1]; in assay [2]) were at most 0.01 µM, 0.1 to 0.3 µM and at most 0.1 µM, respectively.

With `CC/C(Nc1cnn(C2CCN(C3CCCCC3)CC2)c1)=C1/C(=O)Nc2ccc(C(=O)NCC(C)C)cc21` [Example 34], the IC50 was at most 0.01 µM at ULK1 kinase, at most 0.1 µM in assay [1] and at most 0.1 µM in assay [2].

For `CC/C(Nc1cnn(C2CCN(CC3CC3)CC2)c1)=C1/C(=O)Nc2ccc(C(=O)NCC(C)C)cc21` [Example 39], the IC50 at ULK1 kinase is at most 0.01 µM; in assay [1], at most 0.1 µM; in assay [2], at most 0.1 µM.

Turning to `C/C(Nc1cnn(C2CCN(C(C)C)CC2)c1)=C1/C(=O)Nc2ccc(C(=O)NCC(F)(F)F)cc21` [Example 24], the IC50 is at most 0.01 µM on ULK1 kinase, 0.3 to 0.6 µM in assay [1] and at most 0.1 µM in assay [2].

As for `CC/C(Nc1ccc(N2CCN(C)CC2)c(F)c1)=C1/C(=O)Nc2ccc(C(=O)NCC(F)(F)F)cc21` [Example 72], the figures for the IC50 (on ULK1 kinase; on ULK2 kinase; in assay [2]) were at most 0.01 µM, at most 0.01 µM and at most 0.1 µM, respectively.

In the case of `CC/C(Nc1cnn(C2CCN(C(C)C)CC2)c1)=C1/C(=O)Nc2ccc(C(=O)NCC3(C)CCCO3)cc21` (stereo not shown) [Example 174], the figures for the IC50 (at ULK1 kinase; at ULK2 kinase; in assay [1]) were at most 0.01 µM, 0.01 to 0.1 µM and at most 0.1 µM, respectively.

With `CC/C(Nc1cnn(C(C)C)c1)=C1/C(=O)Nc2ccc(C(=O)C3CC3)cc21` [Example 6, (Z)-5-(cyclopropanecarbonyl)-3-(1-((1-isopropyl-1H-pyrazol-4-yl)amino)propylidene)indolin-2-one], the figures for the IC50 (at ULK1 kinase; at ULK2 kinase; in assay [1]) were 0.01 to 0.1 µM, 0.1 to 0.5 µM and 0.1 to 0.3 µM, respectively.

Regarding `CC/C(Nc1cnn(C(C)C)c1)=C1/C(=O)Nc2ccc(C(=O)Nc3cnn(CC(F)(F)F)c3)cc21` [Example 178], the IC50 at ULK1 kinase and at ULK2 kinase was over 0.5 µM each time.

Regarding `CC/C(Nc1cnc(N2CCN(C)CC2)nc1)=C1/C(=O)Nc2ccc(C(=O)NCC(F)(F)F)cc21` [Example 76], the IC50 on ULK1 kinase was 0.1 to 0.5 µM; on ULK2 kinase, over 0.5 µM; in assay [2] it was 0.1 to 0.3 µM.

Consider `CC/C(Nc1cnn(C(C)C)c1)=C1/C(=O)Nc2ccc(C(=O)NCCC(C)(C)F)cc21` [Example 164], for which the IC50 is at most 0.01 µM at ULK1 kinase and 0.01 to 0.1 µM on ULK2 kinase.

Consider `CC/C(Nc1cnn(C(C)C)c1)=C1/C(=O)Nc2ccc(C(=O)NC(C)(C)CC(F)(F)F)cc21` [Example 167], for which the IC50 on ULK1 kinase and on ULK2 kinase was 0.1 to 0.5 µM in each case.

For `CC/C(Nc1cnn(C2CCC2)c1)=C1/C(=O)Nc2ccc(C(=O)NCC(C)(C)F)cc21` [Example 165], the IC50 at ULK1 kinase and at ULK2 kinase was at most 0.01 µM each time.

Turning to `CC/C(Nc1cnn(C(C)C)c1)=C1/C(=O)Nc2ccc(C(=O)N(CC(F)(F)F)C3CC3)cc21` [Example 175], the IC50 at ULK1 kinase was at most 0.01 µM; at ULK2 kinase, 0.1 to 0.5 µM.

Take `CC/C(Nc1cnn(C(C)C)c1)=C1/C(=O)Nc2ccc(C(=O)NCC3(OC)CC3)cc21` [Example 163]: the IC50 was in the range of 0.01 to 0.1 µM at ULK1 kinase and 0.1 to 0.5 µM on ULK2 kinase.

Regarding `CC/C(Nc1cnn(C(C)C)n1)=C1/C(=O)Nc2ccc(C(=O)NCC(F)(F)F)cc21` [Example 110], the IC50 at ULK1 kinase fell in the range of 0.01 to 0.1 µM; at ULK2 kinase, 0.1 to 0.5 µM.

On to `CC/C(Nc1ccc(N2CCN(C)CC2)cc1F)=C1/C(=O)Nc2ccc(C(=O)NCC(F)(F)F)cc21` [Example 73], for which the IC50 on ULK1 kinase was 0.1 to 0.5 µM; on ULK2 kinase it was 0.1 to 0.5 µM; in assay [2], 0.1 to 0.3 µM.

For `CC/C(Nc1cnn(C2CCN(C(C)C)CC2)c1)=C1/C(=O)Nc2ccc(C(=O)NCC3(C)CCCO3)cc21` (stereo not shown) [Example 56], the IC50 on ULK1 kinase was 0.01 to 0.1 µM; at ULK2 kinase it was 0.1 to 0.5 µM.

In general, IC50 refers to the midpoint of a concentration-inhibition curve.
